Data from patent publication US20220313626A1, “SMALL MOLECULE INHIBITORS FOR TREATING CANCER IN A SUBJECT HAVING TUMORS WITH HIGH INTERSTITIAL PRESSURE” (GUANGZHOU MAXINOVEL PHARMACEUTICALS CO., LTD., priority 2019, published 2022).

Experiments:
[1] = tested on: PD-L1 suppressed human T-cells; test: Activation of T-Cell Suppressed by PD-L1 (IFN-g readout); format: cell-based; conditions: human T cells co-cultured with Hep3B cells transfected with human PD-L1; dose dependent; Keytruda positive control
Excerpt: To measure the cellular activity of the compound, a protocol of Activation of T-Cell Suppressed by PD-L1 was used. In this protocol, human Hep3B cells were stably transfected with human PD-L1. The human T cells containing PD-1 were inactivated by co-culturing with these PD-L1 transfected cells. Then anti-PD-1 antibody Keytruda® was selected as the reference to profile the compound for its activation of PD-L1 suppressed human T-cells.

4T1 tumor cells = test: Anti-tumor efficacy in the subcutaneous 4T1 murine breast cancer model in BALB/c mice; format: in vivo; conditions: 4T1, BALB/c mice; for TGI / Tumor Volume: PO, BID, 20 days
Method: Materials required for the experiment: Antibody: mouse PD-1 antibody, Product specifications: 7.09 mg/mL (50 mg/mL), Lot No.: 695318A1 purchased from BioXcell, storage at 4 °C. Experiment animal: 60 BALB/C mice, female, 6˜8 weeks old, 20˜23 g, purchased from Shanghai Lingchang Biotechnology Co, Ltd. Formulation material: castor oil (Cremophor RH40), CAS No.: 61788-85-0, Lot No.: 29761847G0, purchased from Shanghai Xietai Chemical Co. Ltd.; β-cyclodextrin (SBE-β-CD), CAS No.:128446-35-5, Lot No.: 20180110, purchased from Shanghai Shaoyuan Chemical Co. Ltd.; RPMI-1640 culture medium, Art. No.: 1869036, Lot No.:11875-093, purchased from Gibco Co. Ltd.; PBS, Art. No.: SH30256.01, Lot No.: AB10141338, purchased from HyClone Co. Ltd.; Fetal bovine serum: CAS No.: 10099-141, Lot No.: 1966174C, purchased from Gibco Co. Ltd.
Cell preparation and implantation: 4T1 cells (CRL-2539™) were cultured with RPMI 1640 supplemented with 10% heat inactivated FBS at 37° C. in 5% CO2 incubator. Cells were passaged 3 times a week. Cells were harvested, counted and passaged, inoculated when around 70% confluent.
Tumor cell inoculation and group administration: The 50 uL cell suspension containing 1×10^5 4T1 tumor cells (cells suspended in base RPMI-1640 medium) was inoculated into the fourth fat pad of the left abdomen of mice. On the second day after inoculation, according to the order of tumor inoculation, stratified randomization was used to group and start the administration on the day of grouping.
Preparation of test substances: Preparation of formulation: 490 mL of sterile water was added into the volumetric flask with magnetic stirring to have a vortex. 100 g of castor oil (Cremophor RH40) was added with a spoon slowly into the vortex and the solution was kept stirring. 200 g of β-cyclodextrin (SBE-β-CD) was added while the solution was kept stirring until the solution was clear, and the total volume was set to 1000 mL, which contained 10% (w/v) Cremophor RH40+20% (w/v) an aqueous solution of SBE-β-CD.
Preparation of Compound Suspension: 178.88 mg compound was weighed and 14.817 mL 10% (w/v) Cremophor RH40+20% (w/v) SBE-β-CD aqueous solution were added. The suspension solution with a concentration of 12.0 mg/mL was obtained by fully mixing with magnetic stirring. 7.0 mL of the compound suspension solution with concentration of 12.0 mg/mL was pipetted and 7.0 mL aqueous formulation solution was added. The suspension solution with a concentration of 6.0 mg/mL was obtained by fully mixing with magnetic stirring, 7.0 mL of the compound suspension solution with concentration of 6.0 mg/mL was pipetted and 7.0 mL aqueous formulation solution was added. The suspension solution with a concentration of 3.0 mg/mL was obtained by fully mixing with magnetic stirring. 7.0 mL of the compound suspension solution with concentration of 3.0 mg/mL was pipetted and 7.0 mL aqueous formulation solution was added. The suspension solution with a concentration of 1.5 mg/mL was obtained by fully mixing with magnetic stirring. The compound suspension solution was prepared once a day.
Preparation of mPD-1 Antibody: 0.339 mL mPD-L1 antibody (7.09 mg/mL) original solution was pipetted and 2.061 mL PBS solution was added. The solution was fully mixed and the final concentration of 1 mg/mL solution was obtained.
Procedure: The mice in the vehicle group were weighed and recorded in the electronic balance according to their numbers. The mice in the vehicle group were given prepared formulation solution twice a day by oral administration according to their body weight with a capacity of 0.1 mL/10 g. Each mouse spent about 20 seconds and 10 mice in each group shared for about 5 minutes.
The mice in the antibody (10 mg/kg) group were weighed and recorded in the electronic balance according to their numbers. The mice in the antibody group were given prepared antibody solution twice a week by IP administration according to their body weight with a capacity of 0.1 ml/10 g. […]

## Cc1c(/C=C/c2cc(CN[C@@](C)(CO)C(=O)O)ccc2C(F)(F)F)cccc1-c1ccccc1 [Compound]
[1]
  activation of PD-L1 suppressed human T cell, indicated by increase of cytokine IFN-g: effectively restored the activation
4T1 tumor cells; 15 mg/kg
  TGI: 19.96%
  Tumor Volume: 689.03 ± 43.97 mm^3
4T1 tumor cells; 30 mg/kg
  TGI: 33.34%
  Tumor Volume: 573.9 ± 43.18 mm^3
4T1 tumor cells; 60 mg/kg
  TGI: 36.32%
  Tumor Volume: 548.24 ± 31.39 mm^3
4T1 tumor cells; 120 mg/kg
  TGI: 41.55%
  Tumor Volume: 503.16 ± 32.93 mm^3
4T1 tumor cells; p<0.05
  minimum effective dose: 30 mpk
